From patent US20060106014A1, “Methods for treating diabetes” (priority 2004, published 2006)

Experiments:
[1] = molecular target: T1, porcine leukocyte 12/15-lipoxygenase (Sus scrofa, UniProt P16469); assay: 12/15-Lipoxygenase Enzyme Assay (colorimetric, ferric oxidation of xylenol orange); type: biochemical; settings: read-out: in vitro IC50 value in a 12/15-LO enzyme assay
T1 construct: purchased Cayman 60300
T1 sequence (P16469 1-663): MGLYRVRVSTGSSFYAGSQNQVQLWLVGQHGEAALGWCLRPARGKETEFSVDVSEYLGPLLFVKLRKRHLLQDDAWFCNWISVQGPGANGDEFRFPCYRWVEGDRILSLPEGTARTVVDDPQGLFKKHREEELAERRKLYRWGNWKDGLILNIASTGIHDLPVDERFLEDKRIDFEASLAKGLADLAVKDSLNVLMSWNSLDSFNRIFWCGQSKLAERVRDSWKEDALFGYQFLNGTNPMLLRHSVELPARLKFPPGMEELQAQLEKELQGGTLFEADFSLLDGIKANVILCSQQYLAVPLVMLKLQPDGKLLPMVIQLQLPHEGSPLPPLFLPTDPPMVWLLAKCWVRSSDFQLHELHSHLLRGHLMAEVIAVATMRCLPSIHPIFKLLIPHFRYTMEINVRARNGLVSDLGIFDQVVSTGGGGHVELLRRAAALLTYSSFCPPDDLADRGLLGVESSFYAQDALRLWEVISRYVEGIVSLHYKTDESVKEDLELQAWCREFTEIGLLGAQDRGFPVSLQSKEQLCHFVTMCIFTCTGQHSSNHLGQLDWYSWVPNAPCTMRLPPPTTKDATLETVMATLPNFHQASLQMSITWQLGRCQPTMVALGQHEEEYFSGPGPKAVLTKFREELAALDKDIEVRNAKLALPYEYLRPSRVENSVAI
Description: This procedure was used for measuring the enzymatic activity of porcine leukocyte 12/15-lipoxygenase using a colorimetric method based on the ferric oxidation of xylenol orange.
(§1) The test compound and/or vehicle were added to 1.3 μL 12/15-lipoxygenase in 50 mM Tris-HCl buffer, pH 7.4. The reaction was initiated by addition of 70 μM arachidonic acid in Tris-HCl buffer, pH 7.4, and terminated after a 10 minute incubation at room temperature by addition of FOX reagent (25 mM sulphuric acid, 100 μM xylenol orange, 100 μM iron (II) sulphate, methanol:water 9:1). The yellow color of acidified xylenol orange was converted to a blue color by the lipid hydroperoxide-mediated oxidation of Fe^2+ ions and the interaction of the resulting Fe^3+ ions with the dye. The complex was allowed to form during a 1 hour incubation at room temperature with shaking. Absorbance of the Fe^3+ complex was then measured at 620 nm using a spectrophotometer.
Negative controls contained enzyme during the incubation step but substrate was not added until after the FOX reagent.

[2] = molecular target: T2, 5-lipoxygenase (Homo sapiens, UniProt P09917); assay: 5-Lipoxygenase Enzyme Assay (colorimetric, ferric oxidation of xylenol orange); type: biochemical; design: purchased Cayman 60402; settings: read-out: in vitro IC50 value in a 5-LO enzyme assay
T2 sequence (P09917 1-674): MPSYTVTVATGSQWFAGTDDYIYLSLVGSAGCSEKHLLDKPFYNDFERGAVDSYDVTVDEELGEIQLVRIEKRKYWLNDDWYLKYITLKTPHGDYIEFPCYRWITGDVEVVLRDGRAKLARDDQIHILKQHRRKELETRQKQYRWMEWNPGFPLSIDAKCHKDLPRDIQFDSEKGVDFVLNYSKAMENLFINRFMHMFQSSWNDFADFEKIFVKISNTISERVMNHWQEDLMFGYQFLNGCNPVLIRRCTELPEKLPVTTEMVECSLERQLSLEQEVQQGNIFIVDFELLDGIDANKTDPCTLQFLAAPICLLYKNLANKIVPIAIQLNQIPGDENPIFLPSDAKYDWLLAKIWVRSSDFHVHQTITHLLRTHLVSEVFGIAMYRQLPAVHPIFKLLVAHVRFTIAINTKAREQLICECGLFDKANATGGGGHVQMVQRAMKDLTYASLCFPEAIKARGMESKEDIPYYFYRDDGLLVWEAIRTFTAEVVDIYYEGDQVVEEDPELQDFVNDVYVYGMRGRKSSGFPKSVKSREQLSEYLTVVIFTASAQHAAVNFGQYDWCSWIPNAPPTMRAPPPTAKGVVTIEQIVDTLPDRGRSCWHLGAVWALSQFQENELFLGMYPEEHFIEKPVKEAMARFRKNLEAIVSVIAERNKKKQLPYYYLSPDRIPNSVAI
Description: This procedure was used for measuring the enzymatic activity of human recombinant 5-lipoxygenase using a colorimetric method based on the ferric oxidation of xylenol orange.
as §1, with “was” for “were”, “0.5” for “1.3”, “5-lipoxygenase” for “12/15-lipoxygenase”, “spectrophotometer. Negative controls contained enzyme during the incubation step but substrate was not added until after the FOX reagent.” for “spectrophotometer.”

| IC50 [1] [µM] | IC50 [2] [µM] | SMILES |
| --- | --- | --- |
| < 5 | < 5 | Cc1c(C)c2c(c(C)c1O)CCC(C)(c1cc(F)c(O)c(F)c1)O2 (stereo not drawn) [2-(3,5-difluoro-4-hydroxyphenyl)-2,5,7,8-tetramethylchroman-6-ol] |
| < 5 | < 5 | N#Cc1ccc(CCc2cc(O)c(O)c(O)c2)cc1 [4-(3,4,5-trihydroxyphenethyl)benzonitrile] |
| < 5 | < 5 | Cc1c(O)c(Br)c(C)c2c1CCC(C)(C)O2 [7-bromo-2,2,5,8-tetramethyl-chroman-6-ol] |
| < 5 | < 5 | Oc1ccc(C=Cc2ccc(Br)cc2)cc1O [4-[2-(4-bromo-phenyl)-vinyl]-benzene-1,2-diol] |
| < 5 | < 5 | COC(=O)c1ccc(C=Cc2ccc(O)c(O)c2CC=C(C)C)cc1 [4-{2-[3,4-dihydroxy-2-(3-methyl-but-2-enyl)-phenyl]-vinyl}benzoic acid methyl ester] |
| < 5 | < 5 | COC(=O)c1ccc(C=Cc2ccc(O)c(O)c2)cc1 [4-[2-(3,4-dihydroxy-phenyl)-vinyl]-benzoic acid methyl ester] |
| < 5 | < 5 | COCOc1ccc(C=Cc2ccc(C(F)(F)F)cc2)cc1OCOC [1,2-bis-methoxymethoxy-4-[2-(4-trifluoromethyl-phenyl)-vinyl]-benzene] |
| < 5 | < 5 | Cc1c(O)c(C)c2c(c1CCC(C)C)OC(C)(C)CC2 [8-isopentyl-2,2,5,7-tetramethylchroman-6-ol] |
| < 5 | < 5 | CC(C)=CCc1cc(C=Cc2ccc(N(C)C)cc2)cc(O)c1O [5-(4-(dimethylamino)styryl)-3-(3-methylbut-2-enyl)benzene-1,2-diol] |
| < 5 | < 5 | Cc1c(O)cc2c(c1C)OC(C)(CCCl)CC2 (stereo not drawn) [2-(2-chloro-ethyl)-2,7,8-trimethyl-chroman-6-ol] |
| < 5 | < 5 | CC1(C)CCc2cc(O)c3cccc(O)c3c2O1 [2,2-dimethyl-3,4-dihydro-2H-benzo[h]chromene-6,10-diol] |
| < 5 | < 5 | COc1c(O)c(C)c(C)c2c1CCC(C)(C)O2 [5-methoxy-2,2,7,8-tetramethylchroman-6-ol] |
| < 5 | < 5 | O=[N+]([O-])c1ccc(C=Cc2ccc(O)c(O)c2)cc1 [4-[2-(4-nitro-phenyl)-vinyl]-benzene-1,2-diol] |
| < 5 | < 5 | O=[N+]([O-])c1ccc(CCc2cc(O)c(O)c(O)c2)cc1 [5-(4-nitrophenethyl)benzene-1,2,3-triol] |
| < 5 | < 5 | Cc1c(C)c2c(c(Cl)c1O)CCC(C)(C)O2 [5-chloro-2,2,7,8-tetramethylchroman-6-ol] |
| < 5 | < 5 | COCOc1ccc(C=Cc2ccc(C(C)(C)C)cc2)cc1OCOC [4-[2-(4-tert-Butyl-phenyl)-vinyl]-1,2-bis-methoxymethoxy-benzene] |
| < 5 | < 5 | Cc1c(C)c2c(c(-c3ccco3)c1O)CCC(C)(C)O2 [5-(furan-2-yl)-2,2,7,8-tetramethylchroman-6-ol] |
| < 5 | < 5 | Cc1c(O)c(C)c(C(F)(F)F)c2c1CCC(C)(C)O2 [2,2,5,7-tetramethyl-8-(trifluoromethyl)chroman-6-ol] |
| < 5 | < 5 | Cc1c(C)c2c(c(C)c1O)CCC(C)(C=Cc1ccccc1)O2 (stereo not drawn) [2,5,7,8-tetramethyl-2-styrylchroman-6-ol] |
| < 5 | < 5 | Cc1cc(C=Cc2ccc([N+](=O)[O-])cc2)cc(C)c1O [2,6-dimethyl-4-[2-(4-nitro-phenyl)-vinyl]-phenol] |
| < 5 | < 5 | CC(=O)Nc1ccc(C=Cc2ccc(O)c(O)c2)cc1 [N-{4-[2-(3,4-dihydroxy-phenyl)-vinyl]-phenyl}acetamide] |
| < 5 | < 5 | Oc1ccc(C=Cc2ccc(O)c(O)c2)c(O)c1 [4-(2,4-dihydroxystyryl)benzene-1,2-diol] |
| < 5 | < 5 | C=CCSCc1c(O)c(C)c(C)c2c1CCC(C)(C)O2 [5-allylsulfanylmethyl-2,2,7,8-tetramethyl-chroman-6-ol] |
| < 5 | < 5 | Cc1c(C)c2c(c(C)c1O)CCC(C)(c1cccs1)O2 (stereo not drawn) [2,5,7,8-tetramethyl-2-(thiophen-2-yl)chroman-6-ol] |
| < 5 | < 5 | Cc1c(O)c(CCC(C)C)c(C)c2c1CCC(C)(C)O2 [2,2,5,8-tetramethyl-7-(3-methyl-butyl)-chroman-6-ol] |
| < 5 | < 5 | O=S(=O)(c1ccc(C=Cc2ccc(O)c(O)c2)cc1)N1CCCCC1 [4-{2-[4-(piperidine-1-sulfonyl)-phenyl]-vinyl}benzene-1,2-diol] |
| < 5 | < 5 | N#Cc1ccc(C=Cc2ccc(O)c(O)c2O)cc1 [4-[2-(2,3,4-trihydroxy-phenyl)-vinyl]-benzonitrile] |
| < 5 | < 5 | Cc1c(O)c(C)c2c(c1I)OC(C)(C)CC2 [8-iodo-2,2,5,7-tetramethylchroman-6-ol] |
| < 5 | < 5 | CS(=O)(=O)Nc1ccc(C=Cc2ccc(O)c(O)c2)cc1 [N-{4-[2-(3,4-dihydroxy-phenyl)-vinyl]-phenyl}methanesulfonamide] |
| < 5 | < 5 | CNc1ccc(C=Cc2cc(O)c(O)c(CC=C(C)C)c2)cc1 [5-(4-(methylamino)styryl)-3-(3-methylbut-2-enyl)benzene-1,2-diol] |
